Biological target: P. falciparum apicoplast DNA polymerase (Pf-apPOL) (Plasmodium falciparum, UniProt Q8ILY1)
Assay: Fluorescence-based high-throughput DNA polymerase assay (molecular beacon), primary screen and dose-response;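 as to % inhibition ApPOL 90': test concentration in µM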;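 as to % inhibition apPOL 180': test concentration in µM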
Format: biochemical
In short: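 Single-point screening used 10 µM compound with 20 nM polymerase, 20 nM hairpin substrate and 6 µM dNTPs for 90 min at 25 °C. Confirmatory titrations (2.5–80 µM) followed fluorescence at three times, and IC50 was derived from a fit including a cooperativity term n.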

[1] = primary screen value of the 186 hits; unit not given; 90 min, 10 µM

Chain of P. falciparum apicoplast DNA polymerase (Pf-apPOL) (Q8ILY1 entry or part of it): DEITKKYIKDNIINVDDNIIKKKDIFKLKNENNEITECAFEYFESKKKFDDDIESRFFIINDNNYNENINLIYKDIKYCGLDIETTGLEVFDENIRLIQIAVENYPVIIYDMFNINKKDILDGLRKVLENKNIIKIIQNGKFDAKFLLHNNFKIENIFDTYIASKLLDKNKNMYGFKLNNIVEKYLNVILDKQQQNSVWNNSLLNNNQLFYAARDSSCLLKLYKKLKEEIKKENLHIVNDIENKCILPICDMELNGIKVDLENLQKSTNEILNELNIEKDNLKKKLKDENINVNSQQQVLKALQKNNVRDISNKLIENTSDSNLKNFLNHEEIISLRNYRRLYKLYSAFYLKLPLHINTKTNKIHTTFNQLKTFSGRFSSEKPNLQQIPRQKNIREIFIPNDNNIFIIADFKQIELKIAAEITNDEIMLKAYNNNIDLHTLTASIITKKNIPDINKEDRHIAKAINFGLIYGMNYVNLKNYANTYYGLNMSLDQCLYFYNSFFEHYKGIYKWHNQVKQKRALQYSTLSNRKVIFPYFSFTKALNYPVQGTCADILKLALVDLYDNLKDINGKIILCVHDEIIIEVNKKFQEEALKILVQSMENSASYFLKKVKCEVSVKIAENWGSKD

CCOC(=O)C(NCc1ccco1)(NC(=O)c1ccco1)C(F)(F)F (stereo not drawn) [KU0276119]
DNA Pol (186 hits, value of the hit list (primary screen); unit not given; 90 min, 10 µM): 69
% inhibition Apo pol 10' (DRC-1; 10'; concentration 2.5): -0.8683%
% inhibition Apo pol 10' (DRC-1; 10'; concentration 5): 4.257%
% inhibition Apo pol 10' (DRC-1; 10'; concentration 10): 15.6994%
% inhibition Apo pol 10' (DRC-1; 10'; concentration 20): 30.4809%
% inhibition Apo pol 10' (DRC-1; 10'; concentration 40): 51.156%
% inhibition Apo pol 10' (DRC-1; 10'; concentration 80): 69.3233%
% inhibition Apol 90' (DRC-1; 90'; concentration 2.5): -1.328%
% inhibition Apol 90' (DRC-1; 90'; concentration 5): -2.247%
% inhibition Apol 90' (DRC-1; 90'; concentration 10): 3.449%
% inhibition Apol 90' (DRC-1; 90'; concentration 20): 14.6625%
% inhibition Apol 90' (DRC-1; 90'; concentration 40): 31.3437%
% inhibition Apol 90' (DRC-1; 90'; concentration 80): 52.4823%
% inhibition apPOL 180' (DRC-1; 180'; concentration 2.5): -2.149%
% inhibition apPOL 180' (DRC-1; 180'; concentration 5): -6.365%
% inhibition apPOL 180' (DRC-1; 180'; concentration 10): -5.1582%
% inhibition apPOL 180' (DRC-1; 180'; concentration 20): 2.395%
% inhibition apPOL 180' (DRC-1; 180'; concentration 40): 15.7005%
% inhibition apPOL 180' (DRC-1; 180'; concentration 80): 35.8359%
% inhibition Apo pol 5' (DRC-2, 5', concentration 2.5): 3%
% inhibition Apo pol 5' (DRC-2, 5', concentration 5): 8.49%
% inhibition Apo pol 5' (DRC-2, 5', concentration 10): 20%
% inhibition Apo pol 5' (DRC-2, 5', concentration 20): 31%
% inhibition Apo pol 5' (DRC-2, 5', concentration 40): 44%
% inhibition Apo pol 5' (DRC-2, 5', concentration 80): 52%
% inhibition Apol 40' (DRC-2, 40', concentration 2.5): 3%
% inhibition Apol 40' (DRC-2, 40', concentration 5): 5%
% inhibition Apol 40' (DRC-2, 40', concentration 10): 12%
% inhibition Apol 40' (DRC-2, 40', concentration 20): 24%
% inhibition Apol 40' (DRC-2, 40', concentration 40): 41%
% inhibition Apol 40' (DRC-2, 40', concentration 80): 57%
% inhibition ApPOL 90' (DRC-2, 90', concentration 2.5): 1.27%
% inhibition ApPOL 90' (DRC-2, 90', concentration 5): 0%
% inhibition ApPOL 90' (DRC-2, 90', concentration 10): 7%
% inhibition ApPOL 90' (DRC-2, 90', concentration 20): 17%
% inhibition ApPOL 90' (DRC-2, 90', concentration 40): 36%
% inhibition ApPOL 90' (DRC-2, 90', concentration 80): 54%
% inhibition apPOL 180' (DRC-2, 180', concentration 2.5): -2.49%
% inhibition apPOL 180' (DRC-2, 180', concentration 5): -7%
% inhibition apPOL 180' (DRC-2, 180', concentration 10): -2%
% inhibition apPOL 180' (DRC-2, 180', concentration 20): 2.7%
% inhibition apPOL 180' (DRC-2, 180', concentration 40): 21%
% inhibition apPOL 180' (DRC-2, 180', concentration 80): 45%
% inhibition Apo pol 5' (DRC-2; 5'; concentration 2.5): 3%
% inhibition Apol 40' (DRC-2; 40'; concentration 2.5): 3%
DNA Pol (primary screen value, 'DNA Pol' only; 90 min, 10 µM): 69

CN(C)C1C(c2ccccc2)=C(c2ccccc2)SC(c2ccccc2)C1[N+](=O)[O-] (stereo not drawn) [KU0268387]
% inhibition Apo pol 10' (DRC-1; 10'; concentration 2.5): 4.043%
% inhibition Apo pol 10' (DRC-1; 10'; concentration 5): 23.3831%
% inhibition Apo pol 10' (DRC-1; 10'; concentration 10): 45.0315%
% inhibition Apo pol 10' (DRC-1; 10'; concentration 20): 49.4618%
% inhibition Apo pol 10' (DRC-1; 10'; concentration 40): 64.8423%
% inhibition Apo pol 10' (DRC-1; 10'; concentration 80): 77.5449%
% inhibition Apol 90' (DRC-1; 90'; concentration 2.5): 3.398%
% inhibition Apol 90' (DRC-1; 90'; concentration 5): 22.5056%
% inhibition Apol 90' (DRC-1; 90'; concentration 10): 44.0197%
% inhibition Apol 90' (DRC-1; 90'; concentration 20): 52.549%
% inhibition Apol 90' (DRC-1; 90'; concentration 40): 68.5649%
% inhibition Apol 90' (DRC-1; 90'; concentration 80): 83.9893%
% inhibition apPOL 180' (DRC-1; 180'; concentration 2.5): 1.708%
% inhibition apPOL 180' (DRC-1; 180'; concentration 5): 12.7714%
% inhibition apPOL 180' (DRC-1; 180'; concentration 10): 32.8138%
% inhibition apPOL 180' (DRC-1; 180'; concentration 20): 41.7834%
% inhibition apPOL 180' (DRC-1; 180'; concentration 40): 60.315%
% inhibition apPOL 180' (DRC-1; 180'; concentration 80): 80.8354%
% inhibition Apol 40' (DRC-2, 40', concentration 20 (unit not given)): 53%
% inhibition ApPOL 90' (DRC-2, 90', concentration 20 (unit not given)): 53%
% inhibition apPOL 180' (DRC-2, 180', concentration 20 (unit not given)): 47%
% inhibition Apo pol 5' (DRC-2; 5'; concentration 2.5): 0.589%
% inhibition Apo pol 5' (DRC-2; 5'; concentration 5): 19%
% inhibition Apo pol 5' (DRC-2; 5'; concentration 10): 32%
% inhibition Apo pol 5' (DRC-2; 5'; concentration 20): 40%
% inhibition Apo pol 5' (DRC-2; 5'; concentration 40): 42%
% inhibition Apo pol 5' (DRC-2; 5'; concentration 80): 47%
% inhibition Apo pol 5' (DRC-2; 5'; concentration 80 (unit not given)): 47%
% inhibition Apol 40' (DRC-2; 40'; concentration 2.5): 1.84%
% inhibition Apol 40' (DRC-2; 40'; concentration 5): 25%
% inhibition Apol 40' (DRC-2; 40'; concentration 10): 39%
% inhibition Apol 40' (DRC-2; 40'; concentration 20): 53%
% inhibition Apol 40' (DRC-2; 40'; concentration 40): 60%
% inhibition Apol 40' (DRC-2; 40'; concentration 80): 68%
% inhibition ApPOL 90' (DRC-2; 90'; concentration 2.5): 0.484%
% inhibition ApPOL 90' (DRC-2; 90'; concentration 5): 23%
% inhibition ApPOL 90' (DRC-2; 90'; concentration 10): 38%
% inhibition ApPOL 90' (DRC-2; 90'; concentration 20): 53%
% inhibition ApPOL 90' (DRC-2; 90'; concentration 40): 62%
% inhibition ApPOL 90' (DRC-2; 90'; concentration 80): 71%
% inhibition apPOL 180' (DRC-2; 180'; concentration 2.5): -3.51%
% inhibition apPOL 180' (DRC-2; 180'; concentration 5): 15%
% inhibition apPOL 180' (DRC-2; 180'; concentration 10): 31%
% inhibition apPOL 180' (DRC-2; 180'; concentration 20): 47%
% inhibition apPOL 180' (DRC-2; 180'; concentration 40): 58%
% inhibition apPOL 180' (DRC-2; 180'; concentration 80): 70%
DNA Pol [1]: 78
DNA Pol (primary screen value, head "DNA Pol", unit not given; 90 min, 10 µM): 78

CCCN1COc2ccc3c(=O)c(-c4ccccc4)coc3c2C1 [KU0199556]
% inhibition Apo pol 10' (DRC-1; concentration 2.5; 10'): 3.335%
% inhibition Apol 90' (DRC-1; concentration 2.5; 90'): 6.953%
% inhibition apPOL 180' (DRC-1; concentration 2.5; 180'): 12.8227%
% inhibition Apo pol 10' (DRC-1; concentration 5; 10'): 0.6816%
% inhibition Apol 90' (DRC-1; concentration 5; 90'): 8.234%
% inhibition apPOL 180' (DRC-1; concentration 5; 180'): 17.5775%
% inhibition Apo pol 10' (DRC-1; concentration 10; 10'): 12.2491%
% inhibition Apol 90' (DRC-1; concentration 10; 90'): 22.7546%
% inhibition apPOL 180' (DRC-1; concentration 10; 180'): 37.4083%
% inhibition Apo pol 10' (DRC-1; concentration 20; 10'): 29.2216%
% inhibition Apol 90' (DRC-1; concentration 20; 90'): 42.6091%
% inhibition apPOL 180' (DRC-1; concentration 20; 180'): 58.6511%
% inhibition Apo pol 10' (DRC-1; concentration 40; 10'): 57.482%
% inhibition Apol 90' (DRC-1; concentration 40; 90'): 69.5557%
% inhibition apPOL 180' (DRC-1; concentration 40; 180'): 84.4582%
% inhibition Apo pol 10' (DRC-1; concentration 80 (unit not given); 10'): 71.548%
% inhibition Apol 90' (DRC-1; concentration 80; 90'): 77.7995%
% inhibition apPOL 180' (DRC-1; concentration 80; 180'): 92.1066%
% inhibition Apo pol 5' (DRC-2; 5'; concentration 80): 51%
% inhibition Apol 40' (DRC-2; 40'; concentration 80): 51%
% inhibition ApPOL 90' (DRC-2; 90'; concentration 20): 39%
% inhibition ApPOL 90' (DRC-2; 90'; concentration 40): 51%
% inhibition apPOL 180' (DRC-2; 180'; concentration 80): 39%
% inhibition Apo pol 5' (DRC-2; concentration 2.5; 5'): 7.48%
% inhibition Apol 40' (DRC-2; concentration 2.5; 40'): 5%
% inhibition ApPOL 90' (DRC-2; concentration 2.5; 90'): 3.57%
% inhibition apPOL 180' (DRC-2; concentration 2.5; 180'): -2.43%
% inhibition Apo pol 5' (DRC-2; concentration 5; 5'): 10%
% inhibition Apol 40' (DRC-2; concentration 5; 40'): 0.118%
% inhibition ApPOL 90' (DRC-2; concentration 5; 90'): -8%
% inhibition apPOL 180' (DRC-2; concentration 5; 180'): -84%
% inhibition Apo pol 5' (DRC-2; concentration 10; 5'): 25%
% inhibition Apol 40' (DRC-2; concentration 10; 40'): 23%
% inhibition ApPOL 90' (DRC-2; concentration 10; 90'): 20%
% inhibition apPOL 180' (DRC-2; concentration 10; 180'): 6.45%
% inhibition Apo pol 5' (DRC-2; concentration 20; 5'): 41%
% inhibition Apol 40' (DRC-2; concentration 20; 40'): 42%
% inhibition ApPOL 90' (DRC-2; concentration 20; 90'): 39%
% inhibition apPOL 180' (DRC-2; concentration 20; 180'): 22%
% inhibition Apo pol 5' (DRC-2; concentration 40; 5'): 52%
% inhibition Apol 40' (DRC-2; concentration 40; 40'): 55%
% inhibition ApPOL 90' (DRC-2; concentration 40; 90'): 51%
% inhibition apPOL 180' (DRC-2; concentration 40; 180'): 38%
% inhibition Apo pol 5' (DRC-2; concentration 80; 5'): 51%
% inhibition Apol 40' (DRC-2; concentration 80; 40'): 51%
% inhibition ApPOL 90' (DRC-2; concentration 80; 90'): 48%
% inhibition apPOL 180' (DRC-2; concentration 80; 180'): 39%
DNA Pol [1]: 28
DNA Pol (primary screen value; head prints only 'DNA Pol'; 90 min, 10 µM): 28

O=c1cc(CN2CCCCC2)c2cc3c(cc2o1)OCO3 [Molecule 56]
IC50 (supplemental file 2, sheet IC50 nontoxic compounds; Pf-apPOL): 38.1 µM
